Drawing on ChEMBL document CHEMBL1201862, “PubChem BioAssay data set” (2004), this text covers IC50, EC50 and AC50 for 9 molecules.

One data set addresses Phosphomannomutase 2 (Homo sapiens, UniProt O15305). Kind of data set: Counter screen SAR assay for PMM2 inhibitors via a fluorescence intensity assay. [Related pubchem assays (depositor defined):AID1545, AID1574].
Data set [1] deals with T1, Mannose-6-phosphate isomerase (Homo sapiens, UniProt P34949).
T1 sequence (P34949 whole entry): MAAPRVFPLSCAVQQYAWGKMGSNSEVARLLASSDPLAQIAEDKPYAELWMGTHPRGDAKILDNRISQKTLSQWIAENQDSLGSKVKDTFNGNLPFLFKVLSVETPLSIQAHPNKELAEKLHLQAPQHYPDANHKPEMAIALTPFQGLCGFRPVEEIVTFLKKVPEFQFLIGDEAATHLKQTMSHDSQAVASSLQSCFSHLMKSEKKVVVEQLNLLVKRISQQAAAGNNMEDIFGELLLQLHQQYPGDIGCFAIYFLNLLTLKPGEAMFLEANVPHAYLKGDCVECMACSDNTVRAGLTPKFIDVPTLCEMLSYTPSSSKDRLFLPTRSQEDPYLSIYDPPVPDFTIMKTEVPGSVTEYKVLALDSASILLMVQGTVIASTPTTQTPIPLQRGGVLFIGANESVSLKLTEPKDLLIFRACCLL
Kind of data set: phosphomannose isomerase inhibition – biochemical, fluorescence intensity, confirmation (AID 1535).

Data set [2] has as its target T1, Mannose-6-phosphate isomerase. Kind of data set: MPI inhibition at elevated mannose 6-phosphate – biochemical, fluorescence intensity, high mannose 6-phosphate, primary screen (AID 1220).
Data set [3] has as its target Glucose-6-phosphate 1-dehydrogenase (Homo sapiens, UniProt P11413). The experiment in a line: inhibition of Homo sapiens G6PD, dose series – biochemical, fluorescence, selectivity assay for P. falciparum G6PD inhibitor project, dose response (AID 504792). Type of data set: functional.
Data set [4] has as its target T2, Beta-galactosidase (Escherichia coli, UniProt Q8VNN2). The experiment in a line: PubChem AID 485352. It counts as functional.
Data set [5] addresses T2, Beta-galactosidase. Type of data set: functional.
The target in a further data set is Mu-type opioid receptor (Homo sapiens, UniProt P35372). The experiment in a line: HTS Image-Based Screen for Agonists of the MOR Receptor. [Related pubchem assays (depositor defined):AID1777, AID1785, AID1786, AID2133]. It counts as functional.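 Also: imaging of beta-arrestin GFP recruitment into spots after receptor activation.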
Data set [6] has as its system HEK293. Kind of data set: NOD2 signaling inhibitors in MDP-stimulated cells, cell-based, uHTS, luminescence (AID 2001). Type of data set: functional. The following applies: Homo sapiens.
In data set [7] the target is T3, Delta-type opioid receptor (Homo sapiens, UniProt P41143). Kind of data set: HTS Image-Based Screen for Antagonists of the DOR Receptor. [Related pubchem assays (depositor defined):AID1777, AID1785, AID1786, AID2133]. Type of data set: functional.
Data set [8] addresses T4, Type-1 angiotensin II receptor (Homo sapiens, UniProt P30556).
T4 sequence (P30556 whole entry): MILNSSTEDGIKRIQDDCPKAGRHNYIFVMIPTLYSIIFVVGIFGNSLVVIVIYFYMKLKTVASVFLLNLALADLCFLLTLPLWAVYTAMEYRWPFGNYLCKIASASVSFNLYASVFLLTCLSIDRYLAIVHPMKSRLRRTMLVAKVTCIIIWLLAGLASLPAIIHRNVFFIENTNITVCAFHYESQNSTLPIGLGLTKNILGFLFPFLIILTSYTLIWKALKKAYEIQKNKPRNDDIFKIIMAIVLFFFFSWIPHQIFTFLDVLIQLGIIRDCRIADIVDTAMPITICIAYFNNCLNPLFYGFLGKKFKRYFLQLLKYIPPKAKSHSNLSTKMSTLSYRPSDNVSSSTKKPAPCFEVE
Kind of data set: antagonism of angiotensin II type 1 receptor – cell-based, uHTS hits, selectivity assay for APJ receptor antagonist project, dose response (AID 463214).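 Also: antagonist potency against angiotensin II stimulated AT1 response.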 It counts as functional.

Data set [9] deals with HEK293. Kind of data set: cells. Type of data set: functional, cell-based. The following applies: Homo sapiens.
The target in data set [10] is T5, Kappa-type opioid receptor (Homo sapiens, UniProt P41145). Type of data set: functional.
Data set [11] deals with T5, Kappa-type opioid receptor. Type of data set: functional. This is another data set of the same source.
The target of data set [12] is T3, Delta-type opioid receptor. The experiment in a line: HTS Image-Based Screen for Agonists of the DOR Receptor. [Related pubchem assays (depositor defined):AID1777, AID1786, AID2133]. Type of data set: functional.
The test system of data set [13] is HEK293. Kind of data set: cells. Type of data set: functional, cell-based. The following applies: Homo sapiens. The source holds these as a separate data set.
Data set [14] relates to Streptococcus sp. 'group A'. Kind of data set: Streptococcus pyogenes SK(-)GAS viability under kanamycin – luminescence, BacTiterGlo, confirmation, counter-screen for streptokinase expression inhibitor project, dose response (AID 1900). It counts as functional, organism-based.
Data set [15] deals with HEK293. The experiment in a line: inhibition of NOD1-driven NF-kB reporter – cell-based, luminescence, uHTS, primary screen (AID 1578). Type of data set: functional. The following applies: Homo sapiens.
The next data set relates to Streptococcus. The experiment in a line: GAS UMAA2166 growth inhibition – luminescence, BacTiterGlo, counter-screen for streptokinase expression inhibitor project, dose response (AID 1915).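 Also: potency for reduction of bacterial viability or growth.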 Type of data set: functional, organism-based.
In data set [16] the target is T6, Corticotropin-releasing factor receptor 2/Corticotropin-releasing factor-binding protein (Homo sapiens, UniProt P24387+Q13324).
T6 sequence (Q13324 whole entry): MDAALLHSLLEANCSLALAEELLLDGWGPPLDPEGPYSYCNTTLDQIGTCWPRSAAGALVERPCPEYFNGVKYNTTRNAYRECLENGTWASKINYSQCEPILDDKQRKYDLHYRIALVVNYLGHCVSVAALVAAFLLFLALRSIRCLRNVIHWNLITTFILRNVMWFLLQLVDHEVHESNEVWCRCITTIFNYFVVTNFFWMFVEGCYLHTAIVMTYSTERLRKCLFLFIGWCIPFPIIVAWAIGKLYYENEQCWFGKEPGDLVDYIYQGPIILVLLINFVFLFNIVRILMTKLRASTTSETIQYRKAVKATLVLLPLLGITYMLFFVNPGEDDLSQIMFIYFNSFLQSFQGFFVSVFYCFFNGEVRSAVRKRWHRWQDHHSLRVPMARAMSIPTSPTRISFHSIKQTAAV
T6 sequence (P24387 whole entry): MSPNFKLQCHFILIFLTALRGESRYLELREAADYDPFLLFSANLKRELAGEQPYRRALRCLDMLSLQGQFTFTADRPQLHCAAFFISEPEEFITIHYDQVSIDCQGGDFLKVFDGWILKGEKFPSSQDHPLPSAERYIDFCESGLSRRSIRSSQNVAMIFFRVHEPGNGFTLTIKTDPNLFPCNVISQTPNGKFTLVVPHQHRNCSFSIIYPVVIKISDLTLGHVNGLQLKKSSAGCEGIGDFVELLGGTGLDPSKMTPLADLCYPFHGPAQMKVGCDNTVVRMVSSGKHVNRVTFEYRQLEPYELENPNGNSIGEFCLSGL
The experiment in a line: activators of CRF receptor 2 with binding protein – uHTS hits, confirmation (AID 602473). It counts as functional. The following applies: read-out: EC50_Mean.

A short description of data set [17]: blockers of CRF-binding protein–CRF-R2 complex – cell-based, uHTS hits, 384-well, dose response (AID 651639). It counts as functional, Homo sapiens. The following applies: read-out: IC50_Mean.
Data set [18] can be described thus: decrease of insulin promoter-GFP reporter – imaging, high-content screening, mouse beta cells (AID 1628). The following applies: MIN6. Type of data set: functional.
Data set [19] addresses T6, Corticotropin-releasing factor receptor 2/Corticotropin-releasing factor-binding protein. Kind of data set: Dose Response confirmation of uHTS hits for small molecule antagonists of the CRF-binding protein and CRF-R2 receptor complex. Type of data set: functional. The following applies: read-out: IC50_Mean.
Data set [20] in a line: MIN6 cell viability loss – mouse insulinoma, cytotoxicity control, dose response (AID 2122).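 Also: confirmatory high-throughput counterscreen run to flag cytotoxic compounds.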 It counts as functional.
The next data set concerns the target Cytochrome P450 3A4 (Homo sapiens, UniProt P08684).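 Also: CYP3A4 tested as one member of a cytochrome P450 panel screen.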
The next data set has as its target T7, Cytochrome P450 1A2 (Homo sapiens, UniProt P05177).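 Also: PubChem cytochrome P450 panel assay, CYP1A2 panel member.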
T7 sequence (P05177 whole entry): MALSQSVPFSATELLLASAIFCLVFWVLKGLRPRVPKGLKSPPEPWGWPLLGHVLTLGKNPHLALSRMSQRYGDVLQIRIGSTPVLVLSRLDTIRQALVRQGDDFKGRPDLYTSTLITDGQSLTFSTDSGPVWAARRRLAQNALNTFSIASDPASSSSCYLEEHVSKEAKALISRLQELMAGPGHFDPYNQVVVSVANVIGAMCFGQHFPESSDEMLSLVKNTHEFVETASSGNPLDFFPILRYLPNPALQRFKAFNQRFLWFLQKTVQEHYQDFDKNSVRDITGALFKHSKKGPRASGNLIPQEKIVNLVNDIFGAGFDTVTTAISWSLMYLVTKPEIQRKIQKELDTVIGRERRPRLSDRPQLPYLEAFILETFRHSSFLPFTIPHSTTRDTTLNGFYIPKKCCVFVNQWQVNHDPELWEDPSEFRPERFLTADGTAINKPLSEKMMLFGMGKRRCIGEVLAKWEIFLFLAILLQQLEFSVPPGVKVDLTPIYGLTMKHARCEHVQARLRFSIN

The target in another data set is Cytochrome P450 2C19 (Homo sapiens, UniProt P33261). Kind of data set: Cytochrome panel assay with activity outcomes. Panel member name: p450-cyp2c19 Compounds with AC50 equal or less than 10 uM are considered active. Type of data set: functional.
For data set [21], the target named is G-protein coupled receptor 55 (Homo sapiens, UniProt Q9Y2T6). The experiment in a line: blockers of GPR55 signalling, imaged – imaging, image-based, counter-screen for GPR35 antagonist project, SAR follow-up (AID 2397). It counts as functional.

pIC50: −log10 of the molar value. Active and inactive are the calls of the source. Bounds are passed on as bounds.

T5 sequence (P41145 whole entry): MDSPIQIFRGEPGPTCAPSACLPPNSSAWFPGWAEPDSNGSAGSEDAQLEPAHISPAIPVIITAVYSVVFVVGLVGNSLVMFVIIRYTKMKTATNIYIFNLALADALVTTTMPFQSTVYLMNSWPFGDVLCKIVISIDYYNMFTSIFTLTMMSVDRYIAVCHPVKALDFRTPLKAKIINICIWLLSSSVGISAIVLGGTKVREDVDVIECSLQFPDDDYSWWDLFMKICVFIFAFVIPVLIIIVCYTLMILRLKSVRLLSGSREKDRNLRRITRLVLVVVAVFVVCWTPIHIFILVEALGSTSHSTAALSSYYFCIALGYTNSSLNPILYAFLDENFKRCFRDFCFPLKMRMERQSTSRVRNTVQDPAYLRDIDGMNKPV
T3 sequence (P41143 whole entry): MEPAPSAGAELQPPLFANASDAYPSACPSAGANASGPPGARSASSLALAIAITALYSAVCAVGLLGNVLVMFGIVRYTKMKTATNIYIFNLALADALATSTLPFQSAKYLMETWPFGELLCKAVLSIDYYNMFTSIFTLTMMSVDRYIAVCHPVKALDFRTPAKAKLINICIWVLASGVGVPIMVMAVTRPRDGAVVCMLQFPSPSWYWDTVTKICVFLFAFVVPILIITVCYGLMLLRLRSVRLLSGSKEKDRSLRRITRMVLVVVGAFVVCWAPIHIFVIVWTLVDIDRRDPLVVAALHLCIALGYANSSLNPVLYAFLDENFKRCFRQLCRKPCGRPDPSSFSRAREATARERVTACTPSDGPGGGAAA
Cytochrome P450 3A4, sequence (P08684 whole entry): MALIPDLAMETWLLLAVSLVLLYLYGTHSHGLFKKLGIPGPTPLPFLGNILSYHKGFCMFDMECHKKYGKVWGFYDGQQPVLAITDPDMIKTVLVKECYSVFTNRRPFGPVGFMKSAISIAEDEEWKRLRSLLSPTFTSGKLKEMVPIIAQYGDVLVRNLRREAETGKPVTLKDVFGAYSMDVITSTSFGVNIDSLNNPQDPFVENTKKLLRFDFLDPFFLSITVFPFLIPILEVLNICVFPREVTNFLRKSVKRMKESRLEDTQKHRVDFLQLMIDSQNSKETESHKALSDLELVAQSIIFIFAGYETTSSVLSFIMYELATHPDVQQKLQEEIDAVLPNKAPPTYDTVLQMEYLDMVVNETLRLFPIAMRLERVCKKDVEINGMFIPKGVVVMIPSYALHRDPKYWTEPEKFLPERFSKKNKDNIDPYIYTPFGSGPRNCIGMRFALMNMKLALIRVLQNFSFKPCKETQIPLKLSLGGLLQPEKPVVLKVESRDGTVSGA
Phosphomannomutase 2, sequence (O15305 whole entry): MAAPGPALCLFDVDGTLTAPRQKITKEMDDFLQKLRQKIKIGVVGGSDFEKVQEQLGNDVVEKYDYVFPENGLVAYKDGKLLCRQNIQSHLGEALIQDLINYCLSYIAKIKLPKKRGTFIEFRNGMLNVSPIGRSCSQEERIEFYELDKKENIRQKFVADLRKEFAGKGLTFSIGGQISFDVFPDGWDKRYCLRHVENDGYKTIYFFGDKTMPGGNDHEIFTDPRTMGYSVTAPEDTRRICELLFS
T2 sequence (Q8VNN2 whole entry): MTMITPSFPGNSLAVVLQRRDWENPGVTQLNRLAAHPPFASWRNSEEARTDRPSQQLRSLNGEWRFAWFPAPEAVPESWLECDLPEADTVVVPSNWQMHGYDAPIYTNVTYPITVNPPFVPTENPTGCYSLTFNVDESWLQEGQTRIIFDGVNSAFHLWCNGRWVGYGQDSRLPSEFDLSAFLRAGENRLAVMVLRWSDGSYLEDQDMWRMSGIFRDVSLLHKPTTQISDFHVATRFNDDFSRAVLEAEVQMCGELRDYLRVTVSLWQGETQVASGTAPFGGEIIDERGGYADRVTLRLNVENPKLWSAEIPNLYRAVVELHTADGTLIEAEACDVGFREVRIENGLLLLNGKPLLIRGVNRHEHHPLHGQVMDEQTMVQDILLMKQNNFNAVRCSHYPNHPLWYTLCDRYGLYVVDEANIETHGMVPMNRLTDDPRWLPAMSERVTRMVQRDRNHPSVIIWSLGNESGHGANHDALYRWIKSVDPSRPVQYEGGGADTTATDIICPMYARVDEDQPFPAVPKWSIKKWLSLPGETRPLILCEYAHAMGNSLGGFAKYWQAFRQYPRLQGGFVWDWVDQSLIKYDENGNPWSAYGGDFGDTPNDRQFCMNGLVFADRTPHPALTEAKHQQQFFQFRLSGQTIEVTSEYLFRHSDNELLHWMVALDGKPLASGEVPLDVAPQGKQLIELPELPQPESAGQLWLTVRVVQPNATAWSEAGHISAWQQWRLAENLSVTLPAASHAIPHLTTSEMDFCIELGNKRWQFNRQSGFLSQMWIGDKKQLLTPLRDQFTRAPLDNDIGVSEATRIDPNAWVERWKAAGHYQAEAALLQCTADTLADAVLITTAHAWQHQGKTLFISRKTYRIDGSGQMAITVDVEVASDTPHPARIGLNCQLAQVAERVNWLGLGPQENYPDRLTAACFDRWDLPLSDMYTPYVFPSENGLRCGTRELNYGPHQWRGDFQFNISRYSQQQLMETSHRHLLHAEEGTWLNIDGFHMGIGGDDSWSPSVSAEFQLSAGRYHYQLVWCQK
G-protein coupled receptor 55, sequence (Q9Y2T6 whole entry): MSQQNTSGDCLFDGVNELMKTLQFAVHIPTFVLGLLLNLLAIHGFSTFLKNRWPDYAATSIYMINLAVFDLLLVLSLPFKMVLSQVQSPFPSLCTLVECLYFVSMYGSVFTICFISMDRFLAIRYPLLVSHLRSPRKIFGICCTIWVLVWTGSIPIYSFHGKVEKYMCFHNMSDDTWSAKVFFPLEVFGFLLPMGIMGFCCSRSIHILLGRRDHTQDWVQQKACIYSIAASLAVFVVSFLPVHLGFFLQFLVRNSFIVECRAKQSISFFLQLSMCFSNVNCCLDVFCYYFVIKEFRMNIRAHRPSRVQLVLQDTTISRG
Glucose-6-phosphate 1-dehydrogenase, sequence (P11413 whole entry): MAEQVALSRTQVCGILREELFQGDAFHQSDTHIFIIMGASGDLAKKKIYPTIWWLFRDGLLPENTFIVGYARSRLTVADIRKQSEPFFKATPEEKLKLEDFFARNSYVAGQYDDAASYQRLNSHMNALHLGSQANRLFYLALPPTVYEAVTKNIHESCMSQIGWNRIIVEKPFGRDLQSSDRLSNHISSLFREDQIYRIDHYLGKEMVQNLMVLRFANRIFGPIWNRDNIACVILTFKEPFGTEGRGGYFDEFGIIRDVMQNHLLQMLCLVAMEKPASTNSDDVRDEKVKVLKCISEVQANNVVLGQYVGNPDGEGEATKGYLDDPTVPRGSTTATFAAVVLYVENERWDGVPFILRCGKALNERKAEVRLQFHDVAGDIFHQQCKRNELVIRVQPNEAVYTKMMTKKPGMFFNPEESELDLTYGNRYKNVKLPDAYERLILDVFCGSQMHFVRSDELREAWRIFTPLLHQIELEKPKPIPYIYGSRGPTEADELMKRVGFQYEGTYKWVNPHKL
Mu-type opioid receptor, sequence (P35372 whole entry): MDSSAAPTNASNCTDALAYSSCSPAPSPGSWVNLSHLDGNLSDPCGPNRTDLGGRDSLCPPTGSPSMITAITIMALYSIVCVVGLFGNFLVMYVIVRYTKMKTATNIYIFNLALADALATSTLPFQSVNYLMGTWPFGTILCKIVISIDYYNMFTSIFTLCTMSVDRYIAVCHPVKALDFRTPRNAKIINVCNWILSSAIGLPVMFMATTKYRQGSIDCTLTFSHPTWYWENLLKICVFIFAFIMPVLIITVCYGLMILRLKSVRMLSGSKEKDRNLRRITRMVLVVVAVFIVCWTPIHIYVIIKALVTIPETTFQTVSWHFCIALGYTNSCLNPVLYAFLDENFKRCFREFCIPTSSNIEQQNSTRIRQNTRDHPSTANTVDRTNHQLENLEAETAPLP
Cytochrome P450 2C19, sequence (P33261 whole entry): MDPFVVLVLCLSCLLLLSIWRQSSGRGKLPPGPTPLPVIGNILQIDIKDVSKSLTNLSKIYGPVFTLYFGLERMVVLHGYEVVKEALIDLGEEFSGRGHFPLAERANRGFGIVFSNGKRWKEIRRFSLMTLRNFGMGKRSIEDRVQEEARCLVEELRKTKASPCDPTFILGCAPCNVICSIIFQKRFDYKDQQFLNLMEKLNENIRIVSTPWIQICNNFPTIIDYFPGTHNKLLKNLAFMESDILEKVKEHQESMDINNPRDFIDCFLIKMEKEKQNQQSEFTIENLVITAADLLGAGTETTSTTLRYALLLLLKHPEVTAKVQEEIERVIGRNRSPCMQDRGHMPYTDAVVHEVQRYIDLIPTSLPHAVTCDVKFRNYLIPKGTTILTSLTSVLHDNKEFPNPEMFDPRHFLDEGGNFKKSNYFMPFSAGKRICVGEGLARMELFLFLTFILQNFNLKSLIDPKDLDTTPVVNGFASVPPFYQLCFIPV

For `Clc1ccc(/N=c2\ssnc2Cl)cc1Cl`, the IC50 at Phosphomannomutase 2 was 88.6 µM (active); in data set [1], 16.9 µM (active).
For the molecule `COc1ccc(-n2c(=S)[nH]c3c(sc(=S)n3-c3ccccc3)c2=O)c(OC)c1`, the IC50 in [2] is 37.6 µM (active); in data set [3], > 80 µM (inactive).
In the case of `COc1cccc(/C=C/c2ccc3cccc(O)c3n2)c1OC`, the EC50 at Beta-galactosidase [4] is > 40 µM (inactive); at Beta-galactosidase [5] it was > 31.5 µM (inactive); at Mu-type opioid receptor it was > 32 µM (inactive); in [12], > 32 µM (inactive); in data set [14], 1.68 µM (active); in the data set with HEK293 [15], > 20 µM (inactive). Moreover, in the data set with Streptococcus, the EC50 is 7.81 µM (active). Moreover, the IC50 in the data set on HEK293 [6] was 5.45 µM (inactive); in data set [7] it was > 32 µM (inactive); in data set [8], 15.6 µM (active); in the data set on HEK293 [9], 10.6 µM (active); in data set [11], > 31.5 µM (inactive); in the data set on HEK293 [13] it was > 20 µM (inactive). Also, the pIC50 in data set [10] was < 4.49.
Consider `c1ccc2c(c1)OCCOCCOCCOCCOCCOc1ccccc1OCCOCCOCCO2`, for which the EC50 in [16] was 12.5 µM (active). Further, the IC50 in data set [17] is 10.4 µM (active); in data set [18] it was 2.89 µM (active); in [19], 2.76 µM (active); in [20] it was 5.48 µM (active).
`COc1ccccc1C(=O)N1CCN(c2ccccn2)CC1`: at Cytochrome P450 3A4, the AC50 entry is recorded as “inconclusive”.
In the case of `c1cncc(-c2cccnc2)c1`, the AC50 entry is “inconclusive” on Cytochrome P450 3A4, 15.8 µM (inconclusive) at Cytochrome P450 1A2 and “inconclusive” at Cytochrome P450 2C19.
For the molecule `Cc1cc(-n2sc3ccccc3c2=O)c2ccccc2n1`, the IC50 was > 100 µM (inactive) on Phosphomannomutase 2 and > 50 µM (inactive) in data set [1].
In the case of `Cc1ccc(C)c(OCCC(=O)NCCc2ccc(S(N)(=O)=O)cc2)c1`, in [21], the IC50 was > 32 µM (inactive).
On to `COc1ccc(OC)c(-c2csc(NC(=O)c3ccc(OCC4CCCO4)cc3)n2)c1` (configuration not stated), for which the IC50 was 2.4 µM (active) in data set [18] and 2.19 µM (active) in data set [20].
